# Assay results: ChEMBL document CHEMBL1201862, “PubChem BioAssay data set” (2004)
#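 Five concentrations, 48 hours, 96-well plates. At the GI50, growth is halved.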 Activity calls are given as the source filed them. No stated cut-off is given here; in the data, active = GI50 up to about 1.1 µM and inactive = higher.
# Experiments:
# Assay in all cases: inhibition of tumour cell growth, NCI panel, 48 h
# KM-20L2 = test system: KM-20L2
# HCT-116 = test system: HCT-116
# UACC-62 = test system: UACC-62
# KM12 = test system: KM12
# IGROV-1 = test system: IGROV-1
# M19-MEL = test system: M19-MEL
# CCRF-CEM = test system: CCRF-CEM
# HOP-92 = test system: HOP-92
# XF498 = test system: XF498
# TK-10 = test system: TK-10
# HT-29 = test system: HT-29
# HOP-18 = test system: HOP-18
# SR = test system: SR
# HCT-15 = test system: HCT-15
# SK-OV-3 = test system: SK-OV-3
# Malme-3M = test system: Malme-3M
# DLD-1 = test system: DLD-1
# NCI-H460 = test system: NCI-H460
# HOP-62 = test system: HOP-62
# LOX IMVI = test system: LOX IMVI
# A498 = test system: A498
# MOLT-4 = test system: MOLT-4
# NCI-H522 = test system: NCI-H522
# UO-31 = test system: UO-31
# HCC 2998 = test system: HCC 2998
# DMS-273 = test system: DMS-273
# U-251 = test system: U-251
# UACC-257 = test system: UACC-257
# RXF 631 = test system: RXF 631
# OVCAR-8 = test system: OVCAR-8
# LXFL 529 = test system: LXFL 529
# K562 = test system: K562
# SF-295 = test system: SF-295
# SN12C = test system: SN12C
# NCI-H226 = test system: NCI-H226
# SK-MEL-5 = test system: SK-MEL-5
# SNB-19 = test system: SNB-19
# OVCAR-5 = test system: OVCAR-5
# NCI-H23 = test system: NCI-H23
# 786-0 = test system: 786-0
# A549 = test system: A549
# EKVX = test system: EKVX
# SNB-75 = test system: SNB-75
# RPMI-8226 = test system: RPMI-8226
# SF-539 = test system: SF-539
# SK-MEL-28 = test system: SK-MEL-28
# SK-MEL-2 = test system: SK-MEL-2
# DMS-114 = test system: DMS-114
# OVCAR-3 = test system: OVCAR-3
# M14 = test system: M14
# COLO 205 = test system: COLO 205
# CAKI-1 = test system: CAKI-1
# RXF 393 = test system: RXF 393
# HL-60 = test system: HL-60
# OVCAR-4 = test system: OVCAR-4
# SF-268 = test system: SF-268
# SW-620 = test system: SW-620
# ACHN = test system: ACHN
structure (smiles),measurement,setting,value
COc1cc2c(c(OC)c1OC)[C@@H]1CCCCC[C@@H]1CCC2=O,GI50,KM-20L2,> 90.8 µM (inactive)
same,GI50,HCT-116,57.1 µM (inactive)
same,GI50,UACC-62,78.9 µM (inactive)
same,GI50,KM12,99.1 µM (inactive)
same,GI50,IGROV-1,> 100 µM (inactive)
same,GI50,M19-MEL,> 100 µM (inactive)
same,GI50,CCRF-CEM,22.8 µM (inactive)
same,GI50,HOP-92,82.6 µM (inactive)
same,GI50,XF498,> 94 µM (inactive)
same,GI50,TK-10,> 100 µM (inactive)
same,GI50,HT-29,> 71.6 µM (inactive)
same,GI50,HOP-18,> 100 µM (inactive)
same,GI50,SR,33.3 µM (inactive)
same,GI50,HCT-15,> 75 µM
same,GI50,SK-OV-3,> 100 µM (inactive)
same,GI50,Malme-3M,> 100 µM (inactive)
same,GI50,DLD-1,38.4 µM (inactive)
same,GI50,NCI-H460,> 58.6 µM (inactive)
same,GI50,HOP-62,> 100 µM (inactive)
same,GI50,LOX IMVI,17.7 µM (inactive)
same,GI50,A498,> 100 µM (inactive)
same,GI50,MOLT-4,24 µM (inactive)
same,GI50,NCI-H522,> 66.7 µM (inactive)
same,GI50,UO-31,> 100 µM (inactive)
same,GI50,HCC 2998,> 100 µM (inactive)
same,GI50,DMS-273,> 49.4 µM (inactive)
same,GI50,U-251,> 92.5 µM (inactive)
same,GI50,UACC-257,59.7 µM (inactive)
same,GI50,RXF 631,> 100 µM (inactive)
same,GI50,OVCAR-8,> 100 µM (inactive)
same,GI50,LXFL 529,58.7 µM (inactive)
same,GI50,K562,28.9 µM (inactive)
same,GI50,SF-295,> 100 µM (inactive)
same,GI50,SN12C,> 100 µM (inactive)
same,GI50,NCI-H226,> 100 µM (inactive)
same,GI50,SK-MEL-5,57.5 µM (inactive)
same,GI50,SNB-19,> 100 µM (inactive)
same,GI50,OVCAR-5,> 100 µM (inactive)
same,GI50,NCI-H23,> 100 µM (inactive)
same,GI50,786-0,> 71.3 µM (inactive)
same,GI50,A549,> 100 µM (inactive)
same,GI50,EKVX,> 100 µM (inactive)
same,GI50,SNB-75,> 100 µM (inactive)
same,GI50,RPMI-8226,31.9 µM (inactive)
same,GI50,SF-539,> 100 µM (inactive)
same,GI50,SK-MEL-28,> 100 µM (inactive)
same,GI50,SK-MEL-2,> 92.9 µM (inactive)
same,GI50,DMS-114,29.4 µM (inactive)
same,GI50,OVCAR-3,97.3 µM (inactive)
same,GI50,M14,> 100 µM (inactive)
same,GI50,COLO 205,> 48.6 µM (inactive)
same,GI50,CAKI-1,> 100 µM (inactive)
same,GI50,RXF 393,> 100 µM (inactive)
same,GI50,HL-60,22.9 µM (inactive)
same,GI50,OVCAR-4,> 91.8 µM (inactive)
same,GI50,SF-268,76 µM (inactive)
same,GI50,SW-620,> 100 µM (inactive)
same,GI50,ACHN,> 100 µM (inactive)
